From patent US20050014811A1, “Substituted benzimidazole compounds and their use for the treatment of cancer” (Aventis Pharma S.A., priority 2001, published 2005) come the findings set out here.

For one data set, the target named is CDK2/CyclinE (Homo sapiens, UniProt P24941). In words: CDK2/CyclinE Flashplate assay, 96-well format, biotinylated-Rb peptide substrate. In kind it is biochemical. The procedure, abridged:
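Biotinylated Rb peptide was captured on streptavidin Flashplates, and CDK2/CyclinE (200 ng/well) was preincubated 30 min on ice with inhibitor at 10, 3, 1, 0.3 or 0.1 μM final. Reactions ran 45 min at RT with 1 μM ATP plus 1 μCi ^33P-ATP. After washing, incorporated ^33P was counted, in duplicate.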

In a further data set the target is CDK4/CyclinD1 (Homo sapiens, UniProt P11802). In words: CDK4/CyclinD1 Flashplate assay, 96-well format, biotinylated-Rb peptide substrate. Format: biochemical. The procedure, abridged:
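Biotinylated Rb peptide bound to streptavidin Flashplate; CDK4/CyclinD1 (70 ng/well) preincubated 30 min on ice with compound at 10, 3, 1, 0.3 and 0.1 μM final. Reaction with 1 μM cold ATP plus 33P-ATP for 45 min at RT; incorporated 33P counted, duplicates.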

SMILES strings stand for the structures.

Sequence of CDK4/CyclinD1 (P11802 whole entry, species assumed): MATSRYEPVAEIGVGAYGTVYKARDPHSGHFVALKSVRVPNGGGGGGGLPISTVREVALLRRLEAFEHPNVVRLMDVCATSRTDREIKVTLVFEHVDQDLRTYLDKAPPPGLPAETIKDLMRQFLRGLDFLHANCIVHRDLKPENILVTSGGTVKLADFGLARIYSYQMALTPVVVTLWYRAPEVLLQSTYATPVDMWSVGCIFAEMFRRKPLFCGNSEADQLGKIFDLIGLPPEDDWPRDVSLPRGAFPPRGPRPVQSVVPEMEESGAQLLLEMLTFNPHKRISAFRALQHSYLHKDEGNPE
Sequence of CDK4/CyclinD1 (P24385 whole entry partner, species assumed): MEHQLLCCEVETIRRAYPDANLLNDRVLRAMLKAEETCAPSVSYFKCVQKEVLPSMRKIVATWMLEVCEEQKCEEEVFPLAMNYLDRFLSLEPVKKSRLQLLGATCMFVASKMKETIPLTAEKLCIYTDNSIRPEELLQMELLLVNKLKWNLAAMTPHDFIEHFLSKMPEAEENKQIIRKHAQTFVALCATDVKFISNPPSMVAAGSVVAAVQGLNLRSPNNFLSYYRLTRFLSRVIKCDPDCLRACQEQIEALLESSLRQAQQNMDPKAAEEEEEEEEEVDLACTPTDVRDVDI

As usually defined, the IC50 is the concentration needed to halve the response being measured. High values mean a need for much substance, low ones inhibition by little substance. One may read the melting point as the temperature, or range, at which the solid turns liquid. With `COCCNc1ccc(S(=O)(=O)Oc2ccc3[nH]c(NC(=O)OC)nc3c2)cc1` [Example 3, Methyl-5-(4-[2-methoxyethyl]aminophenylsulfonyloxy) benzimidazole-2-carbamate], the melting point came out at 155 °C. The compound further had an IC50 on CDK2/CyclinE of 500 nM. Moreover, at CDK4/CyclinD1, half-maximal inhibition (IC50) required 2400 nM.

Turning to `COC(=O)Nc1nc2cc(OS(=O)(=O)c3ccc(NCCO)cc3)ccc2[nH]1` [Example 1, Methyl-5-(4-[2-hydroxyethyl]aminophenylsulfonyloxy) benzimidazole-2-carbamate], the melting point is 170 °C. Besides, it took 600 nM to reach half-maximal inhibition at CDK2/CyclinE (IC50). For the same compound, the IC50 against CDK4/CyclinD1 came to 1500 nM.

Turning to `COC(=O)Nc1nc2cc(OS(=O)(=O)c3ccc(NCCCCO)cc3)ccc2[nH]1` [Example 2, Methyl-5-(4-[4-hydroxbutyl]aminophenylsulfonyloxy) benzimidazole-2-carbamate], the melting point was 180 °C. The same compound gave an IC50 against CDK2/CyclinE of 700 nM. This compound yielded a half-inhibitory concentration (IC50) against CDK4/CyclinD1 of 2000 nM.

In turn, `COC(=O)Nc1nc2cc(OS(=O)(=O)c3ccc(-n4ccnc4)cc3)ccc2[nH]1` [Example 4, Methyl-5-(4-[1-imidazolyl]-phenylsulfonyloxy) benzimidazole-2-carbamate] gave a melting point of 258 °C. The compound also displayed an IC50 against CDK2/CyclinE of 1500 nM. Besides, the IC50 on CDK4/CyclinD1 is 6300 nM.

On to `COC(=O)Nc1nc2cc(OS(=O)(=O)c3ccc(NCc4ccccn4)cc3)ccc2[nH]1` [Example 5, Methyl-5-(4-[2-pyridylmethyl]aminophenylsulfonyloxy) benzimidazole-2-carbamate], for which the values for the IC50 against CDK2/CyclinE and against CDK4/CyclinD1 were 2200 nM and 1120 nM, respectively.

As for `CN(C)c1ccc(Nc2nc3cc(OS(=O)(=O)c4ccc(NC5CCCC5)cc4)ccc3[nH]2)cc1` [Example 70-e, 4-Cyclopentylamino-benzenesulfonic acid 2-(4-dimethylamino-phenylamino)-1H-benzoimidazol-5-yl ester], the IC50 at CDK2/CyclinE came to 800 nM; against CDK4/CyclinD1, 500 nM.

For the compound `O=C(NCCO)Nc1nc2cc(OS(=O)(=O)c3ccc(NC4CCCC4)cc3)ccc2[nH]1` [Example 58-e, 4-Cyclopentylamino-benzenesulfonic acid 2-[3-(2-hydroxy-ethyl)-ureido]-1H-benzoimidazol-5-yl ester], the IC50 was determined as 40 nM at CDK2/CyclinE and 100 nM against CDK4/CyclinD1.

With `O=C(NCCN1CCCCC1)Nc1nc2cc(OS(=O)(=O)c3ccc(NCC4CCCO4)cc3)ccc2[nH]1` (stereo not drawn) [Example 59-r, 4-[(Tetrahydro-furan-2-ylmethyl)-amino]-benzenesulfonic acid 2-[3-(2-piperidin-1-yl-ethyl)-ureido]-1H-benzoimidazol-5-yl ester], the half-inhibitory concentration (IC50) at CDK2/CyclinE was 220 nM; at CDK4/CyclinD1 it was 1800 nM.

In general, inhibition refers to the drop in the measured response relative to a control, in per cent. A low value points to a weak effect. `O=C(NCc1ccccc1Cl)Nc1nc2cc(OS(=O)(=O)c3ccc(NC4CCCC4)cc3)ccc2[nH]1` [Example 58-g, 4-Cyclopentylamino-benzenesulfonic acid 2-[3-(2-chloro-benzyl)-ureido]-1H-benzoimidazol-5-yl ester] showed a half-maximal inhibitory concentration (IC50) on CDK2/CyclinE of 1000 nM. Also, 10 µM produced 69% inhibition against CDK4/CyclinD1.

`O=C(NCc1ccccn1)Nc1nc2cc(OS(=O)(=O)c3ccc(NC4CCCC4)cc3)ccc2[nH]1` [Example 50, 4-Cyclopentylamino-benzenesulfonic acid 2-(3-pyridin-2-ylmethyl-ureido)-1H-benzoimidazol-5-yl ester]: the IC50 turned out to be 40 nM on CDK2/CyclinE and 300 nM at CDK4/CyclinD1.

For `CCNC(=O)Nc1nc2cc(OS(=O)(=O)c3ccc(NC4CCCC4)cc3)ccc2[nH]1` [Example 45, 4-Cyclopentylamino-benzenesulfonic acid 2-(3-ethyl-ureido)-1H-benzoimidazol-5-yl ester], the IC50 against CDK2/CyclinE was found to be 60 nM; at CDK4/CyclinD1 it was 600 nM.

For the compound `COc1ccc(NC(=O)Nc2nc3cc(OS(=O)(=O)c4ccc(NC5CCCC5)cc4)ccc3[nH]2)cc1` [Example 39, 4-Cyclopentylamino-benzenesulfonic acid 2-[3-(4-methoxy-phenyl)-ureido]-1H-benzoimidazol-5-yl ester], the half-maximal inhibitory concentration (IC50) was 290 nM on CDK2/CyclinE and 1620 nM on CDK4/CyclinD1.

For `O=C(NCCNCCO)Nc1nc2cc(OS(=O)(=O)c3ccc(NC4CCCC4)cc3)ccc2[nH]1` [Example 58-aa, 4-Cyclopentylamino-benzenesulfonic acid 2-{3-[2-(2-hydroxy-ethylamino)-ethyl]-ureido}-1H-benzoimidazol-5-yl ester], the IC50 against CDK2/CyclinE was found to be 100 nM; against CDK4/CyclinD1 it was 340 nM.
